The source made the active and inactive calls.
What was measured:
Albumin = Albumin (Bos taurus, UniProt P02769); assay: Counterscreen for inhibitors of T-cell receptor (TCR)-CD3 interaction: Fluorescence-based biochemical high throughput dose response assay to identify inhibitors of T-cell receptor (TCR)-CD3 interaction using a TAMRA-labeled BSA probe.; format: functional
[1] = NIH3T3 cell viability loss – ATP luminescence, mouse fibroblasts, counter-screen, dose response (AID 2010); format: functional, cell-based;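 also: cells exposed to compound for about 90 hours before reading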
[2] = Trypanosoma cruzi growth suppression in host cells – NIH3T3 host cells, beta-gal luminescence, confirmation (AID 2044); format: functional, cell-based;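 also: intracellular parasites grown in NIH/3T3 mouse fibroblasts as host cells; luminescent beta-galactosidase reporter signal from transgenic T. cruzi replicating inside host cells; inhibitors lower the luminescence signal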
[3] = nonselective StAR promoter luciferase inhibitors – cell-based, luminescence, luciferase reporter, counter-screen for LRH-1 inverse agonist project, dose response (AID 651969); format: functional
Steroidogenic factor 1 = Steroidogenic factor 1 (Homo sapiens, UniProt Q13285); assay: Counterscreen for inverse agonists of the liver receptor homolog-1 (LRH-1; NR5A2): Luminescence-based cell-based high throughput dose response assay to identify inverse agonists of the Steroidogenic Factor 1 Nuclear Receptor (SF1; NR5A1).; format: functional
Steroidogenic factor 1, sequence (Q13285 whole entry): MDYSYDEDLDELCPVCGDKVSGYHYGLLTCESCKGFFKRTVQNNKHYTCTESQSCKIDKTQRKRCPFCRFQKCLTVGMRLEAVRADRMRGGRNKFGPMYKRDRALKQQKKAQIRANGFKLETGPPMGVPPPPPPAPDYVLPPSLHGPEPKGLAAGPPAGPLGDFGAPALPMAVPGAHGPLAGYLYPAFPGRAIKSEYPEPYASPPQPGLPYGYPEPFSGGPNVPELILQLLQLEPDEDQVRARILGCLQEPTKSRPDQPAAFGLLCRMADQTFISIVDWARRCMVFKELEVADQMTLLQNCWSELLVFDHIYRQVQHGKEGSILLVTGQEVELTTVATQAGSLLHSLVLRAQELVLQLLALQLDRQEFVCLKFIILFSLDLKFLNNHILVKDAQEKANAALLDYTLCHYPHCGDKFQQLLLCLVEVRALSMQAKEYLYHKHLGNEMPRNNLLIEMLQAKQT

[4] = target: Nuclear receptor subfamily 5 group A member 2 (Homo sapiens, UniProt O00482); format: functional, cell-based;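 also: HEK293T cells transfected with LRH-1 and a StAR promoter luciferase reporter; potency for inhibitors that lower LRH-1 driven reporter light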
Nuclear receptor subfamily 5 group A member 2, sequence (O00482 whole entry): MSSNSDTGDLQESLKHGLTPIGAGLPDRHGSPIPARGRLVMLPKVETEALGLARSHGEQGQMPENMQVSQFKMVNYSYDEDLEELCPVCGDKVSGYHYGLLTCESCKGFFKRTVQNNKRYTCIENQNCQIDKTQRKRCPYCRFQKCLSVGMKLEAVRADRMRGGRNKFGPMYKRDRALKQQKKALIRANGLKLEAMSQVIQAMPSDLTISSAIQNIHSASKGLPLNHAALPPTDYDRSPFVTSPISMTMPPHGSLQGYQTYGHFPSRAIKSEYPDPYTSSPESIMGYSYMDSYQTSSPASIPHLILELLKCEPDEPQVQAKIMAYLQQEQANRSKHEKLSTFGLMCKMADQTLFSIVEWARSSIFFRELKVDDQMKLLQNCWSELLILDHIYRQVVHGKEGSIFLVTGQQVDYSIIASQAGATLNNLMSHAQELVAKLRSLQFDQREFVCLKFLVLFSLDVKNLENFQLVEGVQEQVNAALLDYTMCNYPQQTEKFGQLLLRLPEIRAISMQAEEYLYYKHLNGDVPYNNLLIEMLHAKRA

Nonstructural protein 1 = Nonstructural protein 1 (Influenza A virus, UniProt Q194T2); format: functional, Influenza A virus (A/California/07/2009(H1N1))
Nonstructural protein 1, sequence (Q194T2 whole entry): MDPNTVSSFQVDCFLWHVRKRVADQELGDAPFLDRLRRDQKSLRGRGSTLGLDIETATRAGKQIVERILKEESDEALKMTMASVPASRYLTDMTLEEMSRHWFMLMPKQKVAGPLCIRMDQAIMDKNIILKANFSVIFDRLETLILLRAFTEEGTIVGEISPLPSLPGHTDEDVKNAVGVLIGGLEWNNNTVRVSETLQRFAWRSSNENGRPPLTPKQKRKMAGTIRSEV

[5] = THP-1 cell cytotoxicity, dose response, cytotoxicity control for non-replicating M. tuberculosis project (AID 489025); format: functional
[6] = target: T1, DNA repair protein RAD52 homolog (Homo sapiens, UniProt P43351); format: functional, biochemical
T1 sequence (P43351 whole entry): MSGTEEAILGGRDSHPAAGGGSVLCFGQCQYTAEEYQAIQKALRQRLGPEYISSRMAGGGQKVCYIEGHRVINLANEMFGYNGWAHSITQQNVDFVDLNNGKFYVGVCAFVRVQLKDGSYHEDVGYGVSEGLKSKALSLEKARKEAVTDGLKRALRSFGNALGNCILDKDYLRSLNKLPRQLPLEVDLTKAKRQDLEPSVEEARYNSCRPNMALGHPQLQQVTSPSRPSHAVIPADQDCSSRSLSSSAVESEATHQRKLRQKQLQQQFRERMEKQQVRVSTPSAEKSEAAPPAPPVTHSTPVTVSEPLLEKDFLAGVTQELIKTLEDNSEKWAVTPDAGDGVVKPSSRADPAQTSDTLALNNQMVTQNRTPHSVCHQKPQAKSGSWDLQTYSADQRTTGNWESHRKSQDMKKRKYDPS

[7] = target: Photoreceptor-specific nuclear receptor (Homo sapiens, UniProt Q9Y5X4); format: functional, cell-based;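 also: CHO-S cells with Gal4-NCOR and VP16-NR2E3 two-hybrid luciferase reporter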
Photoreceptor-specific nuclear receptor, sequence (Q9Y5X4 whole entry, the tested form may be a part): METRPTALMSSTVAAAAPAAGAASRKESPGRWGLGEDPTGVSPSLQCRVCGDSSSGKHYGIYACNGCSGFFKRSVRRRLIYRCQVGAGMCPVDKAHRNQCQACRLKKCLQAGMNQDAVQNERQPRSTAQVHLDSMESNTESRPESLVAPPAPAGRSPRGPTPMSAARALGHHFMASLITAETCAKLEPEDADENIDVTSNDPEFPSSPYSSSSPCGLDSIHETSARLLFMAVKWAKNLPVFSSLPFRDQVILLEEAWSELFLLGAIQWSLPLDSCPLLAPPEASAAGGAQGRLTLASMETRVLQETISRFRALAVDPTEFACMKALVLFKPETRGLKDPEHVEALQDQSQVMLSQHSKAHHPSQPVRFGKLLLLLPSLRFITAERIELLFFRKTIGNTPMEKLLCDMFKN

SN12K1 = assay: cells; format: functional; conditions: Homo sapiens
P388 = assay: cells; format: functional; conditions: Mus musculus
P388/ADR = assay: cells; format: functional; conditions: Mus musculus
Protein Wnt-3a = Protein Wnt-3a (Mus musculus, UniProt P27467); assay: SAR analysis of small molecule antagonists of Gli-SUFU in a Wnt3a luminescent reporter assay.; format: functional
Protein Wnt-3a, sequence (P27467 whole entry): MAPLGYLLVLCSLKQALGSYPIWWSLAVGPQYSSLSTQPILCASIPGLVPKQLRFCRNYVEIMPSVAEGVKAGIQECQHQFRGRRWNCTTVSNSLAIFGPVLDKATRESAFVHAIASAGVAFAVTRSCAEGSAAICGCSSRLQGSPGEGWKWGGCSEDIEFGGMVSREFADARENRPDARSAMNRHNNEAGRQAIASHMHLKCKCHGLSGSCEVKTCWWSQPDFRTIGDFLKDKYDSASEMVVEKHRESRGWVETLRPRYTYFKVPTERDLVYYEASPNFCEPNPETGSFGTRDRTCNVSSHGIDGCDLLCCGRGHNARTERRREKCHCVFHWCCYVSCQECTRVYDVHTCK

Interleukin-8 = target: T2, Interleukin-8 (Homo sapiens, UniProt P10145); assay: Dose Response confirmation of uHTS small molecule hits for cystic fibrosis induced NFkb Inhibitors in a PAF-induced IL8 counterscreen.; format: functional; conditions: read-out: IC50_Mean
T2 sequence (P10145 whole entry): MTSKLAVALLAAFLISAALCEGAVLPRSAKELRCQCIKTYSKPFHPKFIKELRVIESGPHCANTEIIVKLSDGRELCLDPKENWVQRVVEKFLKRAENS

cells [8] = format: functional, cell-based
cells [9] = format: functional, cell-based; remark: listed apart in the source
[10] = target: T3, Trace amine-associated receptor 1 (Homo sapiens, UniProt Q96RJ0); assay: Counterscreen for agonists of the human trace amine associated receptor 1 (hTAAR1): Fluorescence-based cell-based high throughput dose response assay to identify hTAAR1 agonist that also desensitize TAAR1 receptor response.; format: functional
T3 sequence (Q96RJ0 whole entry): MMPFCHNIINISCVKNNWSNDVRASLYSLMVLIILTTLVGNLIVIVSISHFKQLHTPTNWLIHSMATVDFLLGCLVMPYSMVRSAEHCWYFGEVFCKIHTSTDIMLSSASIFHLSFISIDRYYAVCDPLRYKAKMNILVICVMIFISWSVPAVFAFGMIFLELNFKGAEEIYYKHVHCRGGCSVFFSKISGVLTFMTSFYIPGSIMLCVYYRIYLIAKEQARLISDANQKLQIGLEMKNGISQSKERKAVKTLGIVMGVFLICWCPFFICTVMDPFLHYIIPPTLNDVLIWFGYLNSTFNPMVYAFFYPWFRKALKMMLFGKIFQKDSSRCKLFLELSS

[11] = target: T3, Trace amine-associated receptor 1; assay: Fluorescence-based cell-based high throughput dose response assay to identify agonists of the human trace amine associated receptor 1 (TAAR1).; format: functional
[12] = off-target signal loss in HeLa-CEM21 co-culture – HeLa F-luc CTL cells, cherry-picked, counter-screen for HIV-1 Env fusion inhibitor project, dose response (AID 652040); format: functional, cell-based;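 also: potency for signal decrease marking cytotoxic or nonspecific inhibition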
[13] = blockers of HIV-1 envelope-mediated cell-cell fusion – cherry-pick, dose response (AID 652057); format: functional, cell-based
[14] = viability loss in CEM21 cells – cell-based, CellTiter-Glo luminescence, cherry-picked, cytotoxicity control for viral fusion inhibitor project, dose response (AID 652042); format: functional;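 also: potency for signal decrease meaning cytotoxicity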
[15] = HIV-1 AD8 envelope cell-cell fusion blockers – cherry-pick, dose response (AID 652062); format: functional, cell-based;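 also: luciferase signal from cell-cell fusion driven by HIV-1 clade B AD8 Env; potency is for inhibitors of fusion seen as a drop in luminescence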
[16] = blockers of HIV-1 ZM109 envelope-driven cell-cell fusion – HeLa effector, CEM target cells, luciferase, cherry-pick, dose response (AID 652058); format: functional, cell-based;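 also: luciferase signal from HIV-1 Env mediated cell-cell fusion of effector and target cells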
[17] = target: T4, Mitochondrial peptide methionine sulfoxide reductase (Bos taurus, UniProt P54149); format: functional;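 also: absorbance read-out, biochemical high-throughput dose-response screen for MsrA inhibitors, confirmatory; recombinant bovine MsrA coupled to E. coli TrxB with NADPH and selenocystamine; potency is for inhibitors of MsrA activity on DMSO substrate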
T4 sequence (P54149 whole entry): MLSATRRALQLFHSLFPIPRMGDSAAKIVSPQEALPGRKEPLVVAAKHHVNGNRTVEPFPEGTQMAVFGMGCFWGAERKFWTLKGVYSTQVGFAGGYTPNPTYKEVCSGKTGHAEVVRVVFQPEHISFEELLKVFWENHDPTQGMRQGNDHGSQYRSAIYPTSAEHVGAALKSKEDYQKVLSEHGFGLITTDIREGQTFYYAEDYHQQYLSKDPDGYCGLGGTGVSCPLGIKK

[18] = target: T5, Tyrosyl-DNA phosphodiesterase 2 (Homo sapiens, UniProt O95551); assay: potency against TDP2 phosphodiesterase activity – biochemical, epi absorbance, IC50, dose response (AID 743297)
T5 sequence (O95551 whole entry): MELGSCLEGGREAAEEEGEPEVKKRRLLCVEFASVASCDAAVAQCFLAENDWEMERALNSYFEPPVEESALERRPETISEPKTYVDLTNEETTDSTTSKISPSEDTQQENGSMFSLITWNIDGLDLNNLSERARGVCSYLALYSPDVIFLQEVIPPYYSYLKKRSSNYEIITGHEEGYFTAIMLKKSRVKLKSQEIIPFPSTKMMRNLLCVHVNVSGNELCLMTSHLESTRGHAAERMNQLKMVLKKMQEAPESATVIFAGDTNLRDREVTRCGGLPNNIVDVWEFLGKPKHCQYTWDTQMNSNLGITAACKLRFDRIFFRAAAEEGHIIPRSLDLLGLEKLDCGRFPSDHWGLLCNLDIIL

Genome polyprotein = Genome polyprotein (dengue virus type 2, UniProt P29990); assay: flavivirus cap methylation enzyme inhibition – biochemical, confirmation dose response, primary screen (AID 588689); format: functional
Genome polyprotein, sequence (P29990 2492-3391 limits assumed): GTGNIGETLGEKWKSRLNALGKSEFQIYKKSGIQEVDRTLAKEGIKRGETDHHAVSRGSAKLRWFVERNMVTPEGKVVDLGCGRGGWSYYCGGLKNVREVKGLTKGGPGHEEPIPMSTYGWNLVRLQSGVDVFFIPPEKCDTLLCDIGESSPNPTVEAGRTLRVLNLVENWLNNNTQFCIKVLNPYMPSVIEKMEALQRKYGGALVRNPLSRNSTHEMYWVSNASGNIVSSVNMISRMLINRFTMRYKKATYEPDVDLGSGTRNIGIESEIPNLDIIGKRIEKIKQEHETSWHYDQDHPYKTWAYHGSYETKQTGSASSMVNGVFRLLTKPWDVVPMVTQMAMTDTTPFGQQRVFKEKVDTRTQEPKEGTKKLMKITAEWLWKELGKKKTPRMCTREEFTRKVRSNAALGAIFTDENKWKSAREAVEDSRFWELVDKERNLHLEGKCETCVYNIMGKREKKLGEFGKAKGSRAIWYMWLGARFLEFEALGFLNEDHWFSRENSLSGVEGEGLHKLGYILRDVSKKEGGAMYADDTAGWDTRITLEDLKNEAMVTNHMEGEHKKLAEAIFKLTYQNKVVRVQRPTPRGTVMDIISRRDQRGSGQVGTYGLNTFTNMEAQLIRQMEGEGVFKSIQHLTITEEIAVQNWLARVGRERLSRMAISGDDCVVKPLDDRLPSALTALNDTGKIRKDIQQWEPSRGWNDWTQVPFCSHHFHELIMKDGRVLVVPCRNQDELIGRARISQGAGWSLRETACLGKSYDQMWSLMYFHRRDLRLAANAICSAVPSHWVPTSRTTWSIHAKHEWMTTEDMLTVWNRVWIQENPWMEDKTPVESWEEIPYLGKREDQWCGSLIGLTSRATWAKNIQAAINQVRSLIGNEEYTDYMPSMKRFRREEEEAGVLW

Cytochrome P450 2C9 = Cytochrome P450 2C9 (Homo sapiens, UniProt P11712)
Cytochrome P450 2C9, sequence (P11712 whole entry): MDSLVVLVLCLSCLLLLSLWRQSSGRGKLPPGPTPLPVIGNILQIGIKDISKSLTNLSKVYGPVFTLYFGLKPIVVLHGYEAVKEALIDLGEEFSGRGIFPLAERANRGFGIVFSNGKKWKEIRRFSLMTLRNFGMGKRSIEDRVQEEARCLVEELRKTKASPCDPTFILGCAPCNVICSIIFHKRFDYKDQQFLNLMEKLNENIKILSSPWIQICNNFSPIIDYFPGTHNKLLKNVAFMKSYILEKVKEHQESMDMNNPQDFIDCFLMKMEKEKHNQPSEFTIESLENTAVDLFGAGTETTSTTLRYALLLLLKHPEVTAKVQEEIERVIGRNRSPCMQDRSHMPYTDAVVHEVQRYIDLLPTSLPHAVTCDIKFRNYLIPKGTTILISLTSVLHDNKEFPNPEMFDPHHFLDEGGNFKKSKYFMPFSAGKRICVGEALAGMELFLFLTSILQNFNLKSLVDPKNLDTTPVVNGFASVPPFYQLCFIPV

[19] = viability loss in HeLa cells – cytotoxicity control for MgcRacGAP inhibitor project, dose response (AID 624300); format: functional
Large T antigen = Large T antigen (Simian virus 40, UniProt P03070); format: functional, Betapolyomavirus macacae;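 also: Confirmatory-stage PubChem screen for compounds that inhibit SV40 T antigen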
Large T antigen, sequence (P03070 whole entry): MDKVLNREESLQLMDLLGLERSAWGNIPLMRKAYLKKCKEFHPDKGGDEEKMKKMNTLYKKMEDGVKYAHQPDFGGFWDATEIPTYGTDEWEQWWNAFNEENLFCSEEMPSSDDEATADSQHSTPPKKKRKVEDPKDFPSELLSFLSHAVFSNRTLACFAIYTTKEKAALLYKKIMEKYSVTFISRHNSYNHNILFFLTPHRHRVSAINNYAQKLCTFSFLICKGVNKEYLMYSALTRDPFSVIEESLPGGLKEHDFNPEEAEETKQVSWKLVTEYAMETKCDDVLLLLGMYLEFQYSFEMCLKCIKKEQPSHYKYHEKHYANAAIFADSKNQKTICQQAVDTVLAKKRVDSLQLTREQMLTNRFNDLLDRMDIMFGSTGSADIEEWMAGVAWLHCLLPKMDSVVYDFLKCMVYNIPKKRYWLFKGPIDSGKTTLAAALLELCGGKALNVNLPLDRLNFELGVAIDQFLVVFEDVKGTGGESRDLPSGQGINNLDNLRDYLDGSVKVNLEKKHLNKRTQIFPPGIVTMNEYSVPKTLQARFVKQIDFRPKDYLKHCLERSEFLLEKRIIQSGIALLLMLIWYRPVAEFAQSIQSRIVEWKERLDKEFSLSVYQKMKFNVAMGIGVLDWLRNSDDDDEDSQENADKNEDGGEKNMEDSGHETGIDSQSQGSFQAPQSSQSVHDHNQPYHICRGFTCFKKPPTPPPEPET

[20] = target: T6, Rac GTPase-activating protein 1 (Homo sapiens, UniProt Q9H0H5); assay: blockers of MgcRacGAP-driven Rac1 GTP hydrolysis – biochemical, ADP Hunter fluorescence, primary and confirmatory, confirmation (AID 624330); format: functional
T6 sequence (Q9H0H5 whole entry): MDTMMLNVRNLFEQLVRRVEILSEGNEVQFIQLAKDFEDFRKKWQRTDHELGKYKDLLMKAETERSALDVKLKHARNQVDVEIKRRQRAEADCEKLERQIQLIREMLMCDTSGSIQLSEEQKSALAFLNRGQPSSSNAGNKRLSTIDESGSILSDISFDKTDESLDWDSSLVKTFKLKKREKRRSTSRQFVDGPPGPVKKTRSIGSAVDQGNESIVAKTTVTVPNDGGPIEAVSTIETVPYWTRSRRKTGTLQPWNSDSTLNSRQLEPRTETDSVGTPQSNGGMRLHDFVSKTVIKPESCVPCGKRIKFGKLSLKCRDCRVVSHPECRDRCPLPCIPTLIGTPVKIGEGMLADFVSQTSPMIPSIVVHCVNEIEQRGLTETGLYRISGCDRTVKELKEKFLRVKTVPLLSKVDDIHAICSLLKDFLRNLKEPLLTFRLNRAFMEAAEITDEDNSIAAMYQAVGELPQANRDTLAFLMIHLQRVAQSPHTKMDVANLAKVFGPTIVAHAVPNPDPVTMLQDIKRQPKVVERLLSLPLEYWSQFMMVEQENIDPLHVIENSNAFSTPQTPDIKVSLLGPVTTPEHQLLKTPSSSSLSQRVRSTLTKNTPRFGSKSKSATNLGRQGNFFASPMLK

Albumin, sequence (P02769 whole entry): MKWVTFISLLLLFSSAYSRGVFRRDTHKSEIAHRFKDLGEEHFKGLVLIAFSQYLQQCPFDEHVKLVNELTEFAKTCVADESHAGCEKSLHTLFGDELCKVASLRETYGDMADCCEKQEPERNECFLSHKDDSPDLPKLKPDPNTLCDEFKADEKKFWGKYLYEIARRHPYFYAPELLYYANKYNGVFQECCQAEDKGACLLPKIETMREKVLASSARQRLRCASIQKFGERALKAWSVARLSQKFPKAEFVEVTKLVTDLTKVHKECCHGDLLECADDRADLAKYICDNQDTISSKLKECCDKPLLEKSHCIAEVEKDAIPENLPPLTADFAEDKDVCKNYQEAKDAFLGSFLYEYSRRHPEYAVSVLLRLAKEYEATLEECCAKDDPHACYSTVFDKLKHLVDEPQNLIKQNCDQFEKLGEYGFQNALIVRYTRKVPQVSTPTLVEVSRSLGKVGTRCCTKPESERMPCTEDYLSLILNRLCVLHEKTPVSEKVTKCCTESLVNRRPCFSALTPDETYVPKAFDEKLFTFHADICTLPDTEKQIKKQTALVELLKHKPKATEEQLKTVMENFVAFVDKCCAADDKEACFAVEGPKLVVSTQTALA

Which results are given for CC1CCN(S(=O)(=O)c2ccc(NC(=O)Cn3nnc(-c4ccccc4F)n3)cc2)CC1?
IC50 (Albumin): > 94.1 µM (inactive); EC50 [1]: > 60 µM (not active); EC50 [2]: 2.23 µM (active)

Which results are given for CC(=O)Nc1ccc(Nc2cc([N+](=O)[O-])cc(Cl)[n+]2[O-])cc1?
IC50 [3]: 35.9 µM (inactive); IC50 (Steroidogenic factor 1): 1.56 µM (active); IC50 [4]: 5.74 µM (active)

What does the source list for O=C(N/N=C/c1cccc([N+](=O)[O-])c1O)c1cccs1?
IC50 (Albumin): > 94.1 µM (inactive); IC50 (Nonstructural protein 1): 7.41 µM (active); CC50 [5]: 32.4 µM (active)

Which AC50 [6] does the source give for COc1cc2c(oc(=O)c3cc(C)cc(OC)c32)c2c(C3OC(C)C(O)C(C)(O)C3O)ccc(O)c12 (stereo not given) here?
Its AC50 is 18.8 µM (active).

And the IC50 [7]?
Its IC50 is 12.7 µM (inactive).

And the GI50 (SN12K1)?
Its GI50 is 0.349 µM (active).

And the GI50 (P388)?
The GI50 was 0.171 µM (active).

What about the GI50 (P388/ADR) of the same molecule?
The GI50 was 0.219 µM (active).

For Cc1nc(NC(=O)c2ccccc2)cc(N2CCCCC2)n1, which IC50 (Protein Wnt-3a) is on record?
The IC50 was > 21.8 µM (inactive).

Which IC50 (Interleukin-8) does the source give for NC(=S)N1OC[C@@H]2COc3ccc4ccccc4c3[C@@H]21 here?
Its IC50 is 8.34 µM (active).

Which EC50 (cells [8]) does the source give for CCOc1ccc(/C=N/CC(O)c2ccccc2)cc1 (stereo not given) here?
Its EC50 is > 29.9 µM (inactive).

What about the IC50 (cells [9]) of the same molecule?
The IC50 was > 29.9 µM (inactive).

And the IC50 [10]?
Its IC50 is 3.27 µM (active).

And the EC50 [11]?
Its EC50 is 0.769 µM (active).

Which results are given for CN(C)C(=O)c1cccc(-c2cnc3sc(NCc4ccc5c(c4)OCO5)nn23)c1?
AC50 [12]: 3.03 µM (active); AC50 [13]: 4.47 µM (active); IC50 (Interleukin-8): 11.8 µM (inactive); AC50 [14]: 66.1 µM (active); AC50 [15]: 4.18 µM (active); AC50 [16]: 4.54 µM (active)

With COc1cc(CN2CCc3ccccc3C2)cc([N+](=O)[O-])c1O as the molecule, how does the EC50 (cells [8]) read?
The EC50 was > 29.9 µM (inactive).

And the IC50 (cells [9])?
Its IC50 is > 29.9 µM (inactive).

What about the IC50 [10] of the same molecule?
Its IC50 is 6.77 µM (active).

And the EC50 [11]?
The EC50 was 1.01 µM (active).

For O=C(Nc1cc(N2CCOCC2)ncn1)c1ccccc1, which IC50 (Protein Wnt-3a) is on record?
Its IC50 is > 21.8 µM (inactive).

What does the source list for O=C(O)c1ccc(NC2=C/C(=N/S(=O)(=O)c3cccs3)c3ccccc3C2=O)cc1?
IC50 [17]: 4.82 µM (active); IC50 [18]: 0.817 µM (active); IC50 (Genome polyprotein): 58.1 µM (active)

Which IC50 (Albumin) does the source give for COC(=O)Nc1ccc(S(=O)(=O)NNC(=O)c2c(O)c3ccccc3[nH]c2=O)cc1 here?
The IC50 was > 94.1 µM (inactive).

For O=C(Cc1ccc(S(=O)(=O)N2CCCC2)s1)Nc1cccc([N+](=O)[O-])c1, which IC50 [3] is on record?
Its IC50 is 35.9 µM (inactive).

And the IC50 (Steroidogenic factor 1)?
Its IC50 is 6.79 µM (active).

What about the IC50 [4] of the same molecule?
The IC50 was 13 µM (inactive).

For COc1ccc(C(=O)NNC(=O)CSc2nnc(COc3ccc4ccccc4c3)n2C)cc1, which EC50 (cells [8]) is on record?
The EC50 was > 29.9 µM (inactive).

And the IC50 (cells [9])?
Its IC50 is > 29.9 µM (inactive).

What about the AC50 (Cytochrome P450 2C9) of the same molecule?
The AC50 was “inconclusive”.

And the IC50 [10]?
Its IC50 is > 29.9 µM (inactive).

And the EC50 [11]?
Its EC50 is > 29.9 µM (inactive).

Which CC50 [19] does the source give for COc1cc(/C=C2\SC(=N)NC2=O)ccc1O here?
Its CC50 is 69.1 µM (active).

And the IC50 (Large T antigen)?
The IC50 was 5.02 µM (active).

And the IC50 [20]?
Its IC50 is 11.8 µM (active).

Which IC50 (Protein Wnt-3a) does the source give for O=C(Nc1cc(N2CCSCC2)ncn1)c1ccccc1 here?
Its IC50 is > 21.8 µM (inactive).

What does the source list for CC(Oc1ccc(S(=O)(=O)N2CCCC2)cc1[N+](=O)[O-])C(=O)NC(C)c1ccccc1 (stereo not given)?
IC50 [3]: 20.1 µM (inactive); IC50 (Steroidogenic factor 1): 7.26 µM (active); IC50 [4]: 11.8 µM (inactive)

From ChEMBL document CHEMBL1201862, “PubChem BioAssay data set” (2004)
